Test results taken from US9718828B2 (MERCK SHARP & DOHME CORP., priority 2011, dated 2017).

Target: hBTK (full-length BTK, 6HIS-tag cleaved) (Homo sapiens (Human), UniProt Q06187)
Test: BTK enzymatic activity, IMAP-FP assay (Assay Method B)
Type: biochemical
Details: IMAP-FP, 1.05 nM hBTK, 5 μM ATP; class 100-1000 is given as ≧100 nM-<1 μM; read-out: IC50 Btk activity values - Assay Method B
Method: BTK enzymatic activity was determined in an IMAP-FP assay (Immobilized Metal ion Affinity-based fluorescence Polarization; Molecular Devices). […] Phosphorylation reactions were allowed to proceed for 120 minutes and were immediately quenched by the addition of 40 μL IMAP detection beads resuspended in IMAP progressive binding buffer (beads were diluted 1:600 in 75% and 25% progressive binding buffer A and B, respectively; Molecular Devices). Plates were read on Packard microplate reader after 60 minutes binding equilibration using Fluorescence Polarization protocol.

hBTK (full-length BTK, 6HIS-tag cleaved), sequence (Q06187 whole entry): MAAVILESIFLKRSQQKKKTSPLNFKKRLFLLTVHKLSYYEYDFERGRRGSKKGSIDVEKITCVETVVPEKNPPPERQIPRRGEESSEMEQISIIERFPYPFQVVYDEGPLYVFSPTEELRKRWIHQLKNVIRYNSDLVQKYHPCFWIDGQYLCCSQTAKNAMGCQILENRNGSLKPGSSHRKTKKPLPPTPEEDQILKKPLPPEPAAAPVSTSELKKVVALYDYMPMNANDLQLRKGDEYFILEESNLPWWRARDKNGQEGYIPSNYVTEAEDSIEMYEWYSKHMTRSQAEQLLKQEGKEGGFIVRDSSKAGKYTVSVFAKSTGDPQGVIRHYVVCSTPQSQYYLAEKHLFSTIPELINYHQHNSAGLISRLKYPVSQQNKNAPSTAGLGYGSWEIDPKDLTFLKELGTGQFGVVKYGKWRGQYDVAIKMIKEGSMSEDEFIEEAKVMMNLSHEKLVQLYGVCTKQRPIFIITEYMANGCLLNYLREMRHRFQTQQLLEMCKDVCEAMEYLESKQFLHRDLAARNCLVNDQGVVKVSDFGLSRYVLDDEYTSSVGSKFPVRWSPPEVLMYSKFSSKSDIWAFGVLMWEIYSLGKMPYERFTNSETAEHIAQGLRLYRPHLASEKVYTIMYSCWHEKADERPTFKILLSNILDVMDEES

IC50: < 10 nM
SMILES: Nc1ncc(F)n2c([C@@H]3CCCN(C(=O)C4CC4)C3)nc(-c3ccc(C(=O)Nc4cc(C(F)(F)F)ccn4)cc3)c12 [Example 463, 4-{8-amino-3-[(3R)-1-(cyclopropylcarbonyl)piperidin-3-yl]-5-fluoroimidazo[1,5-a]pyrazin-1-yl}-N-[4-(trifluoromethyl)pyridin-2-yl]benzamide]
